Data published in PubChem BioAssay AID248 (DTP/NCI, 2004).
“And” between values parts separate entries of the source, which are not always exact repeats. Identical values can stand only once. Toxic doses and inconclusive results are not listed. Rule as the data show it: active = T/C of 150% or more; inactive = T/C below 125%.

Test system: L1210 leukemia ip in BDF1 mice, survival T/C
Assay: NCI In Vivo Anticancer Drug Screen. Data for tumor model L1210 Leukemia (intraperitoneal) in B6D2F1 (BDF1) mice
Details: endpoint: mean survival time, higher = longer survival
Summary of the method: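 Each compound was tested against a transplantable tumor grown in mice. The endpoint was survival, with treated animals benchmarked against vehicle controls as a simple ratio.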

[1] = dose: 12.5 mg/kg/injection, schedule: Q01DX009 (ip), vehicle: saline
[2] = dose: 25.0 mg/kg/injection, schedule: Q01DX009 (ip), vehicle: saline
[3] = dose: 50.0 mg/kg/injection, schedule: Q01DX009 (ip), vehicle: saline
[4] = dose: 100.0 mg/kg/injection, schedule: Q04DX003 (ip), vehicle: saline with Tween-80
[5] = dose: 5.0 mg/kg/injection, schedule: Q01DX001 (ip), vehicle: saline
[6] = dose: 10.0 mg/kg/injection, schedule: Q01DX001 (ip), vehicle: saline
[7] = dose: 20.0 mg/kg/injection, schedule: Q01DX001 (ip), vehicle: saline
[8] = dose: 100.0 mg/kg/injection, schedule: Q01DX001 (ip), vehicle: saline

Measured: T/C

CN(C)Cc1ncccc1OC(=O)N(c1ccccc1)c1ccccc1
inactive: [1] 97 % of control | [2] 97 % of control | [3] 100 % of control

CNc1ncnc2nn(C)c(C#N)c12
inactive: dose: 50.0 mg/kg/injection, schedule: Q04DX002 (ip), vehicle: saline 106 % of control | dose: 100.0 mg/kg/injection, schedule: Q04DX002 (ip), vehicle: saline 95 % of control | dose: 200.0 mg/kg/injection, schedule: Q04DX002 (ip), vehicle: saline 103 % of control

COc1cc2c(cc1O)CCCC(C)(C)C2=O
inactive: dose: 50.0 mg/kg/injection, schedule: Q01DX009 (ip), vehicle: saline with Tween-80 104 % of control | dose: 100.0 mg/kg/injection, schedule: Q01DX009 (ip), vehicle: saline with Tween-80 93 % of control | dose: 200.0 mg/kg/injection, schedule: Q01DX009 (ip), vehicle: saline with Tween-80 90 % of control

CCC(=O)OC1(c2ccccc2)CCN(CC2CC2)CC1C (stereo not given)
inactive: dose: 20.0 mg/kg/injection, schedule: Q04DX003 (ip), vehicle: saline 105 % of control | dose: 40.0 mg/kg/injection, schedule: Q04DX003 (ip), vehicle: saline 111 % of control | dose: 80.0 mg/kg/injection, schedule: Q04DX003 (ip), vehicle: saline 91 % of control

NC(=O)/C=C/c1c[nH]c2nccnc12
inactive: dose: 1.56 mg/kg/injection, schedule: Q01DX009 (ip), vehicle: water 100 % of control | dose: 3.12 mg/kg/injection, schedule: Q01DX009 (ip), vehicle: water 95 % of control | dose: 6.25 mg/kg/injection, schedule: Q01DX009 (ip), vehicle: water 100 % of control | dose: 12.5 mg/kg/injection, schedule: Q01DX009 (ip), vehicle: water 103 % of control | dose: 25.0 mg/kg/injection, schedule: Q01DX009 (ip), vehicle: water 86 % of control and 90 % of control

CCCn1c(=O)cc(/C=N/Nc2ccc([N+](=O)[O-])cc2[N+](=O)[O-])c2ccccc21
inactive: dose: 100.0 mg/kg/injection, schedule: Q01DX001 (ip), vehicle: saline with Tween-80 90 % of control | dose: 200.0 mg/kg/injection, schedule: Q01DX001 (ip), vehicle: saline with Tween-80 90 % of control | dose: 400.0 mg/kg/injection, schedule: Q01DX001 (ip), vehicle: saline with Tween-80 90 % of control

C(=NCC(CCN1CCOCC1)(CCN1CCOCC1)c1cccc2ccccc12)C(CCN1CCOCC1)(CCN1CCOCC1)c1cccc2ccccc12
inactive: dose: 25.0 mg/kg/injection, schedule: Q04DX003 (ip), vehicle: saline with Tween-80 90 % of control | dose: 50.0 mg/kg/injection, schedule: Q04DX003 (ip), vehicle: saline with Tween-80 100 % of control | [4] 89 % of control

Cc1ncc2n1C=CN(C(=O)c1ccc([N+](=O)[O-])cc1)C2O (stereo not given)
inactive: dose: 100.0 mg/kg/injection, schedule: Q01DX009 (ip), vehicle: water 98 % of control | dose: 200.0 mg/kg/injection, schedule: Q01DX009 (ip), vehicle: water 98 % of control | dose: 400.0 mg/kg/injection, schedule: Q01DX009 (ip), vehicle: water 93 % of control

Clc1ccc(Cl)c(/C=C/c2ccc(Cl)c(Cl)c2)c1
inactive: dose: 1.56 mg/kg/injection, schedule: Q01DX009 (ip), vehicle: Klucel (hydroxypropylcellulose) (HPC) 97 % of control | dose: 3.12 mg/kg/injection, schedule: Q01DX009 (ip), vehicle: Klucel (hydroxypropylcellulose) (HPC) 95 % of control | dose: 6.25 mg/kg/injection, schedule: Q01DX009 (ip), vehicle: Klucel (hydroxypropylcellulose) (HPC) 92 % of control and 100 % of control | dose: 100.0 mg/kg/injection, schedule: Q04DX003 (ip), vehicle: Klucel (hydroxypropylcellulose) (HPC) 97 % of control

O=C(/C=C/C(=O)Nc1cccc(C2=NCCN2)c1)Nc1cccc(C2=NCCN2)c1
inactive: dose: 3.75 mg/kg/injection, schedule: Q01DX Z (ip), vehicle: carboxymethylcellulose (CMC) 94 % of control | dose: 7.5 mg/kg/injection, schedule: Q01DX Z (ip), vehicle: carboxymethylcellulose (CMC) 94 % of control | dose: 15.0 mg/kg/injection, schedule: Q01DX Z (ip), vehicle: carboxymethylcellulose (CMC) 94 % of control

C[N+](C)(C)CCC[N+]1(C)CC2C3CCCCC3=C3CCCCC3C2C1 (stereo not given)
inactive: [5] 95 % of control | [6] 98 % of control | [7] 101 % of control

CC1(C)CC(=O)C(C23C=CC2=C(CO)C(=O)OC3)C1 (stereo not given)
inactive: [5] 96 % of control | [6] 96 % of control | [7] 98 % of control | dose: 40.0 mg/kg/injection, schedule: Q01DX001 (ip), vehicle: saline 110 % of control

[Mn+2].[NH-]CC(=O)O.[NH-]CC(=O)O
inactive: [8] 96 % of control

CC(=O)OC/C=C(\C)CCC1OC1(C)C (stereo not given)
inactive: [8] 120 % of control | dose: 100.0 mg/kg/injection, schedule: Q04DX003 (ip), vehicle: water 102 % of control | dose: 200.0 mg/kg/injection, schedule: Q01DX001 (ip), vehicle: saline 108 % of control | dose: 200.0 mg/kg/injection, schedule: Q04DX003 (ip), vehicle: water 112 % of control | dose: 400.0 mg/kg/injection, schedule: Q01DX001 (ip), vehicle: saline 114 % of control | dose: 400.0 mg/kg/injection, schedule: Q04DX003 (ip), vehicle: water 101 % of control

CC12C(c3ccccc3)=C(c3ccccc3)C(C)(C3C(=O)OC(=O)C31)C1C(=O)OC(=O)C12 (stereo not given)
inactive: dose: 100.0 mg/kg/injection, schedule: Q01DX001 (ip), vehicle: Klucel (hydroxypropylcellulose) (HPC) 88 % of control | dose: 200.0 mg/kg/injection, schedule: Q01DX001 (ip), vehicle: Klucel (hydroxypropylcellulose) (HPC) 100 % of control | dose: 400.0 mg/kg/injection, schedule: Q01DX001 (ip), vehicle: Klucel (hydroxypropylcellulose) (HPC) 100 % of control

Nc1cccc2cn[nH]c12
inactive: dose: 100.0 mg/kg/injection, schedule: Q01DX009 (ip), vehicle: other 104 % of control | dose: 200.0 mg/kg/injection, schedule: Q01DX009 (ip), vehicle: other 112 % of control

CCCCCCCCCCCCCCCCS(=O)(=O)N/N=C/c1ccc(N(C)C)cc1
inactive: dose: 100.0 mg/kg/injection, schedule: Q01DX001 (ip), vehicle: carboxymethylcellulose (CMC) 92 % of control | dose: 200.0 mg/kg/injection, schedule: Q01DX001 (ip), vehicle: carboxymethylcellulose (CMC) 87 % of control | dose: 400.0 mg/kg/injection, schedule: Q01DX001 (ip), vehicle: carboxymethylcellulose (CMC) 89 % of control

ClC(Cl)=[C](Cl)[Hg][C](Cl)=C(Cl)Cl
inactive: dose: 0.39 mg/kg/injection, schedule: Q01DX009 (ip), vehicle: saline with Tween-80 96 % of control | dose: 0.78 mg/kg/injection, schedule: Q01DX009 (ip), vehicle: saline with Tween-80 97 % of control | dose: 1.56 mg/kg/injection, schedule: Q01DX009 (ip), vehicle: saline with Tween-80 93 % of control and 86 % of control

CC1(C)N=C(N)N=C(N)N1c1ccc(OCC(=O)N2CCOCC2)c(Cl)c1
inactive: [1] 98 % of control | [2] 98 % of control | [3] 95 % of control | dose: 100.0 mg/kg/injection, schedule: Q01DX009 (ip), vehicle: saline 101 % of control

CCc1ccc(C(=O)CCCCl)cc1
inactive: [4] 94 % of control | dose: 200.0 mg/kg/injection, schedule: Q04DX003 (ip), vehicle: saline with Tween-80 100 % of control | dose: 400.0 mg/kg/injection, schedule: Q04DX003 (ip), vehicle: saline with Tween-80 86 % of control
